Assay results reported in ChEMBL document CHEMBL2429768, “Eco-friendly synthesis and antimicrobial activities of substituted-5-(1H-indol-3-yl)methylene)-2,2-dimethyl-1,3-dioxane-4,6-dione derivatives” (2013).
≈ marks a conversion by molar mass, not a printed value.

Key:
Type in all cases: functional
Bacillus subtilis [1] = test: Antibacterial activity against Bacillus subtilis at 500 ug/ml after 24 hrs by agar well diffusion method; conditions: read-out: DIZ
Staphylococcus aureus [2] = test: Antibacterial activity against Staphylococcus aureus ATCC 6538 at 50 ug/ml after 24 hrs by agar well diffusion method; conditions: ATCC 6538, 24 h, read-out: DIZ
Bacillus subtilis [3] = test: Antibacterial activity against Bacillus subtilis at 200 ug/ml after 24 hrs by agar well diffusion method; conditions: read-out: DIZ
Staphylococcus aureus [4] = test: Antibacterial activity against Staphylococcus aureus ATCC 6538 at 100 ug/ml after 24 hrs by agar well diffusion method; conditions: ATCC 6538, 24 h, read-out: DIZ
Aspergillus niger [5] = test: Antifungal activity against Aspergillus niger at 100 ug/ml after 72 hrs by agar well diffusion method; conditions: read-out: DIZ
Fusarium oxysporum [6] = test: Antifungal activity against Fusarium oxysporum after 72 hrs by agar well diffusion method
Staphylococcus aureus [7] = test: Antibacterial activity against Staphylococcus aureus ATCC 6538 after 24 hrs by agar well diffusion method; conditions: ATCC 6538, 24 h
Klebsiella pneumoniae [8] = test: Antibacterial activity against Klebsiella pneumoniae at 100 ug/ml after 24 hrs by agar well diffusion method; conditions: read-out: DIZ
Klebsiella pneumoniae [9] = test: Antibacterial activity against Klebsiella pneumoniae at 200 ug/ml after 24 hrs by agar well diffusion method; conditions: read-out: DIZ
Aspergillus niger [10] = test: Antifungal activity against Aspergillus niger after 72 hrs by agar well diffusion method
Rhizoctonia solani [11] = test: Antifungal activity against Rhizoctonia solani at 500 ug/ml after 72 hrs by agar well diffusion method; conditions: read-out: DIZ
Bacillus subtilis [12] = test: Antibacterial activity against Bacillus subtilis at 50 ug/ml after 24 hrs by agar well diffusion method; conditions: read-out: DIZ
Escherichia coli [13] = test: Antibacterial activity against Escherichia coli ATCC 8739 at 500 ug/ml after 24 hrs by agar well diffusion method; conditions: ATCC 8739, 24 h, read-out: DIZ
Aspergillus flavus [14] = test: Antifungal activity against Aspergillus flavus at 300 ug/ml after 72 hrs by agar well diffusion method; conditions: read-out: DIZ
Aspergillus niger [15] = test: Antifungal activity against Aspergillus niger at 300 ug/ml after 72 hrs by agar well diffusion method; conditions: read-out: DIZ
Aspergillus niger [16] = test: Antifungal activity against Aspergillus niger at 500 ug/ml after 72 hrs by agar well diffusion method; conditions: read-out: DIZ
Aspergillus flavus [17] = test: Antifungal activity against Aspergillus flavus at 100 ug/ml after 72 hrs by agar well diffusion method; conditions: read-out: DIZ
Fusarium oxysporum [18] = test: Antifungal activity against Fusarium oxysporum at 50 ug/ml after 72 hrs by agar well diffusion method; conditions: read-out: DIZ
Aspergillus flavus [19] = test: Antifungal activity against Aspergillus flavus at 50 ug/ml after 72 hrs by agar well diffusion method; conditions: read-out: DIZ
Bacillus subtilis [20] = test: Antibacterial activity against Bacillus subtilis at 300 ug/ml after 24 hrs by agar well diffusion method; conditions: read-out: DIZ
Rhizoctonia solani [21] = test: Antifungal activity against Rhizoctonia solani at 100 ug/ml after 72 hrs by agar well diffusion method; conditions: read-out: DIZ
Rhizoctonia solani [22] = test: Antifungal activity against Rhizoctonia solani at 200 ug/ml after 72 hrs by agar well diffusion method; conditions: read-out: DIZ
Aspergillus flavus [23] = test: Antifungal activity against Aspergillus flavus after 72 hrs by agar well diffusion method
Fusarium oxysporum [24] = test: Antifungal activity against Fusarium oxysporum at 200 ug/ml after 72 hrs by agar well diffusion method; conditions: read-out: DIZ
Escherichia coli [25] = test: Antibacterial activity against Escherichia coli ATCC 8739 at 100 ug/ml after 24 hrs by agar well diffusion method; conditions: ATCC 8739, 24 h, read-out: DIZ
Rhizoctonia solani [26] = test: Antifungal activity against Rhizoctonia solani at 50 ug/ml after 72 hrs by agar well diffusion method; conditions: read-out: DIZ
Klebsiella pneumoniae [27] = test: Antibacterial activity against Klebsiella pneumoniae at 300 ug/ml after 24 hrs by agar well diffusion method; conditions: read-out: DIZ
Klebsiella pneumoniae [28] = test: Antibacterial activity against Klebsiella pneumoniae at 50 ug/ml after 24 hrs by agar well diffusion method; conditions: read-out: DIZ
Rhizoctonia solani [29] = test: Antifungal activity against Rhizoctonia solani after 72 hrs by agar well diffusion method
Escherichia coli [30] = test: Antibacterial activity against Escherichia coli ATCC 8739 at 300 ug/ml after 24 hrs by agar well diffusion method; conditions: ATCC 8739, 24 h, read-out: DIZ
Aspergillus niger [31] = test: Antifungal activity against Aspergillus niger at 50 ug/ml after 72 hrs by agar well diffusion method; conditions: read-out: DIZ
Bacillus subtilis [32] = test: Antibacterial activity against Bacillus subtilis after 24 hrs by agar well diffusion method
Aspergillus flavus [33] = test: Antifungal activity against Aspergillus flavus at 500 ug/ml after 72 hrs by agar well diffusion method; conditions: read-out: DIZ
Fusarium oxysporum [34] = test: Antifungal activity against Fusarium oxysporum at 100 ug/ml after 72 hrs by agar well diffusion method; conditions: read-out: DIZ
Fusarium oxysporum [35] = test: Antifungal activity against Fusarium oxysporum at 500 ug/ml after 72 hrs by agar well diffusion method; conditions: read-out: DIZ
Staphylococcus aureus [36] = test: Antibacterial activity against Staphylococcus aureus ATCC 6538 at 300 ug/ml after 24 hrs by agar well diffusion method; conditions: ATCC 6538, 24 h, read-out: DIZ
Staphylococcus aureus [37] = test: Antibacterial activity against Staphylococcus aureus ATCC 6538 at 500 ug/ml after 24 hrs by agar well diffusion method; conditions: ATCC 6538, 24 h, read-out: DIZ
Klebsiella pneumoniae [38] = test: Antibacterial activity against Klebsiella pneumoniae at 500 ug/ml after 24 hrs by agar well diffusion method; conditions: read-out: DIZ
Bacillus subtilis [39] = test: Antibacterial activity against Bacillus subtilis at 100 ug/ml after 24 hrs by agar well diffusion method; conditions: read-out: DIZ
Aspergillus niger [40] = test: Antifungal activity against Aspergillus niger at 200 ug/ml after 72 hrs by agar well diffusion method; conditions: read-out: DIZ
Klebsiella pneumoniae [41] = test: Antibacterial activity against Klebsiella pneumoniae after 24 hrs by agar well diffusion method
Aspergillus flavus [42] = test: Antifungal activity against Aspergillus flavus at 200 ug/ml after 72 hrs by agar well diffusion method; conditions: read-out: DIZ
Escherichia coli [43] = test: Antibacterial activity against Escherichia coli ATCC 8739 at 200 ug/ml after 24 hrs by agar well diffusion method; conditions: ATCC 8739, 24 h, read-out: DIZ
Escherichia coli [44] = test: Antibacterial activity against Escherichia coli ATCC 8739 after 24 hrs by agar well diffusion method; conditions: ATCC 8739, 24 h
Staphylococcus aureus [45] = test: Antibacterial activity against Staphylococcus aureus ATCC 6538 at 200 ug/ml after 24 hrs by agar well diffusion method; conditions: ATCC 6538, 24 h, read-out: DIZ
Rhizoctonia solani [46] = test: Antifungal activity against Rhizoctonia solani at 300 ug/ml after 72 hrs by agar well diffusion method; conditions: read-out: DIZ
Fusarium oxysporum [47] = test: Antifungal activity against Fusarium oxysporum at 300 ug/ml after 72 hrs by agar well diffusion method; conditions: read-out: DIZ
Escherichia coli [48] = test: Antibacterial activity against Escherichia coli ATCC 8739 at 50 ug/ml after 24 hrs by agar well diffusion method; conditions: ATCC 8739, 24 h, read-out: DIZ

- MIC (Fusarium oxysporum [6]): 35 µg/mL (≈ 123 µM)
- MIC (Staphylococcus aureus [7]): 25 µg/mL (≈ 87.6 µM)
- MIC (Aspergillus niger [10]): 40 µg/mL (≈ 140 µM)
- MIC (Aspergillus flavus [23]): 40 µg/mL (≈ 140 µM)
- MIC (Rhizoctonia solani [29]): 35 µg/mL (≈ 123 µM)
- MIC (Bacillus subtilis [32]): 30 µg/mL (≈ 105 µM)
- MIC (Klebsiella pneumoniae [41]): 15 µg/mL (≈ 52.6 µM)
- MIC (Escherichia coli [44]): 15 µg/mL (≈ 52.6 µM)
SMILES: Cn1cc(C=C2C(=O)OC(C)(C)OC2=O)c2ccccc21
- zone of inhibition at 500 µg/mL (Bacillus subtilis [1]): 23 mm
- zone of inhibition at 50 µg/mL (Staphylococcus aureus [2]): 6 mm
- zone of inhibition at 200 µg/mL (Bacillus subtilis [3]): 12 mm
- zone of inhibition at 100 µg/mL (Staphylococcus aureus [4]): 10 mm
- zone of inhibition at 100 µg/mL (Aspergillus niger [5]): 10 mm
- zone of inhibition at 100 µg/mL (Klebsiella pneumoniae [8]): 14 mm
- zone of inhibition at 200 µg/mL (Klebsiella pneumoniae [9]): 18 mm
- zone of inhibition at 500 µg/mL (Rhizoctonia solani [11]): 29 mm
- zone of inhibition at 50 µg/mL (Bacillus subtilis [12]): 4 mm
- zone of inhibition at 500 µg/mL (Escherichia coli [13]): 30 mm
- zone of inhibition at 300 µg/mL (Aspergillus flavus [14]): 15 mm
- zone of inhibition at 300 µg/mL (Aspergillus niger [15]): 18 mm
- zone of inhibition at 500 µg/mL (Aspergillus niger [16]): 25 mm
- zone of inhibition at 100 µg/mL (Aspergillus flavus [17]): 9 mm
- zone of inhibition at 50 µg/mL (Fusarium oxysporum [18]): 7 mm
- zone of inhibition at 50 µg/mL (Aspergillus flavus [19]): 4 mm
- zone of inhibition at 300 µg/mL (Bacillus subtilis [20]): 15 mm
- zone of inhibition at 100 µg/mL (Rhizoctonia solani [21]): 12 mm
- zone of inhibition at 200 µg/mL (Rhizoctonia solani [22]): 16 mm
- zone of inhibition at 200 µg/mL (Fusarium oxysporum [24]): 16 mm
- zone of inhibition at 100 µg/mL (Escherichia coli [25]): 13 mm
- zone of inhibition at 50 µg/mL (Rhizoctonia solani [26]): 7 mm
- zone of inhibition at 300 µg/mL (Klebsiella pneumoniae [27]): 23 mm
- zone of inhibition at 50 µg/mL (Klebsiella pneumoniae [28]): 9 mm
- zone of inhibition at 300 µg/mL (Escherichia coli [30]): 20 mm
- zone of inhibition at 50 µg/mL (Aspergillus niger [31]): 6 mm
- zone of inhibition at 500 µg/mL (Aspergillus flavus [33]): 23 mm
- zone of inhibition at 100 µg/mL (Fusarium oxysporum [34]): 12 mm
- zone of inhibition at 500 µg/mL (Fusarium oxysporum [35]): 29 mm
- zone of inhibition at 300 µg/mL (Staphylococcus aureus [36]): 18 mm
- zone of inhibition at 500 µg/mL (Staphylococcus aureus [37]): 25 mm
- zone of inhibition at 500 µg/mL (Klebsiella pneumoniae [38]): 31 mm
- zone of inhibition at 100 µg/mL (Bacillus subtilis [39]): 9 mm
- zone of inhibition at 200 µg/mL (Aspergillus niger [40]): 14 mm
- zone of inhibition at 200 µg/mL (Aspergillus flavus [42]): 12 mm
- zone of inhibition at 200 µg/mL (Escherichia coli [43]): 16 mm
- zone of inhibition at 200 µg/mL (Staphylococcus aureus [45]): 14 mm
- zone of inhibition at 300 µg/mL (Rhizoctonia solani [46]): 21 mm
- zone of inhibition at 300 µg/mL (Fusarium oxysporum [47]): 21 mm
- zone of inhibition at 50 µg/mL (Escherichia coli [48]): 8 mm
